The record followed here is patent US12503437B2, “1,1-dimethyl-2-[(E)-2-phenylethenyl]-1H-benzo[e]indole derivatives and uses thereof” (Kaunas University of Technology, priority 2023, dated 2025).

Data set [1] relates to G361 cells. The experiment in a line: Evaluation of cellular viability by microscopy (propidium iodide staining). In kind it is cell-based, human. The settings on record: 1.1 μM+10 J/cm^2, 16 h after irradiation. The procedure:
G361 cells were treated with compound 3g, 4 h later irradiated with 10 J/cm^2 and further cultivated for 16 h. Control cells were treated with the same compound without irradiation. After the incubation period, cells were stained with propidium iodide (final concentration 10 μg/mL) to evaluate their viability by fluorescence microscopy. In parallel, the morphology of treated cells was evaluated by light microscopy. Experiment clearly confirmed the ability of compound 3g to affect cellular viability after light irradiation in dose-dependent manner as shown by positive propidium iodide staining (>95% of analyzed cells at 1.1 μM of compound 3g+10 J/cm^2) as well as significant morphological changes reflecting ongoing cellular death (FIG. 3).

Data set [2] relates to G361 cells (human skin melanoma). Description: MTT cell viability assay with photodynamic treatment. Type of data set: cell-based. The procedure: (§1) For photodynamic treatments, G361 cells (human skin melanoma) were cultivated in DMEM medium without phenol red supplemented with 10% fetal bovine serum, 100 U/mL penicillin, 100 μg/mL streptomycin, 2 mM glutamine, at 37° C. in 5% CO2 atmosphere. Cells were treated with test compounds and after 4 h were irradiated (the maximal wavelength emission of 414 nm and different total doses up to 10 J/cm^2). Further cultivation lasted for subsequent 16, 24 or 72 h.
Cell viability (EC50) was determined using the MTT (Sigma-Aldrich) assay in 96-well microplates. Cells were seeded, next day treated with test compounds for 4 h and subsequently irradiated (the maximal wavelength emission of 414 nm and total dose of 2.5 and 10 J/cm^2). After irradiation, the cells were incubated for further 72 h and then the MTT solution was added. Cells were incubated for another 4 h at 37° C. and then the 0.1% SDS was added to the wells to solubilize the violet formazan crystals. The measurement of absorbance was carried out on reader Tecan Infinite M200Pro at 570 nm. Dark viability was measured in parallel under the same conditions without irradiation.
For orientation: Tetrazolium assays rely on reduction of a dye to a coloured formazan, in cell work by metabolically active cells.

The subject of data set [3] is G361 cells. Description: Flow cytometric detection of cell death (sub-G1 populations). Type of data set: cell-based, human. As to conditions: for number of cells in sub-G1 population: G361 cells. The procedure:
as §1
Asynchronous cells were seeded and, after a pre-incubation period, treated with compound 3g for 4 h, irradiated and after further 24 h of incubation, samples were fixed and stained with propidium iodide. DNA content was analyzed by flow cytometry using a 488 nm laser (BD FACS Verse with software BD FACSuite™, version 1.0.6.) and cell cycle distribution was analyzed using ModFit LT (Verity Software House).
On the technique in general: A flow cytometer gives signals particle by particle.

The nature of data set [4]: Absorption and fluorescence properties in water. In kind it is physicochemical. As to conditions: for λem: excitation wavelength 380 nm. Here is the method:
To determine the wavelength of light, at which 1,1-dimethyl-2-[(E)-2-phenylethenyl]-1H-benzo[e]indole derivatives should be irradiated for the investigation of their photodynamic activity, the absorption and fluorescence properties thereof were measured in water. The excitation wavelength λex was set to 380 nm. Based on the results an in-house constructed LED based light source specifically designed for the irradiation of 96-well microplates and Petri dishes (Tomecka et al., CZ302829B6, 2006) was chosen, with a maximal wavelength emission of 414 nm and light intensity set to 20 mW/cm^2.

The test system of data set [5] is G361 cells. Description: DNA damage and apoptotic cell death by immunoblotting analysis. Type of data set: cell-based, human. As to conditions: 24 h. Here is the method:
To confirm DNA damage caused by a combination of compound 3g and irradiation in G361 cells, phosphorylation of histone H2A.X at Ser-139 (γH2A.X), which is a well-accepted marker of DNA damage, was evaluated using immunoblotting analysis (FIG. 2). The cells were treated with different doses (0.1, 0.3 or 1.1 μM) of compound 3g for 4 h, then either kept in dark or exposed to light with a total irradiation dose of 10 J/cm^2 and cultivated for subsequent 24 h. After this period, the cells were harvested and analyzed by immunoblotting.
The cell lysates were prepared in RIPA buffer. Equal protein amounts were loaded and separated on SDS-polyacrylamide gels, electroblotted onto nitrocellulose membranes and after blocking, overnight incubation with specific primary antibodies and incubation with peroxidase-conjugated secondary antibodies, the peroxidase activity was detected with SuperSignal West Pico reagents (Thermo Scientific) using a CCD camera LAS-4000 (Fujifilm). All primary antibodies were diluted in TBS containing 4% BSA and 0.1% Tween 20. The specific antibodies were purchased from Cell Signaling (anti-PARP-1, clone 46D11; anti-caspase 7; HRP-linked secondary antibodies), Santa Cruz Biotechnology (anti-β-actin, clone C4), Millipore (anti-phospho-histone H2A.X, Ser139, clone JBW301).
The cleavage of PARP-1, an enzyme involved in DNA repair, which gets cut and inactivated by caspases during apoptotic cell death, was also apparent when combining said concentration and irradiation dose. […] It confirms that the above observation is a consequence of a photodynamic effect.

In another data set the test system is caspases 3 and 7. Description: Caspase-3/7 assay. In kind it is cell-based, human. The settings on record: G361 cells; 1.1 μM+10 J/cm^2. Here is the method:
The cell lysates were incubated for 4 h with 100 μM Ac-DEVD-AMC (the substrate of caspases 3 and 7) in the assay buffer (25 mM PIPES, 2 mM EGTA, 2 mM MgCl2, 5 mM DTT, pH 7.3). The fluorescence of the product was measured using a Fluoroskan Ascent microplate reader (Labsystems) at 355/460 nm (excitation/emission).
To confirm apoptosis as a mechanism of cell death, activity of pro-apoptotic caspases 3 and 7, which are involved in mediating cell death signalling transduction, was quantified upon treatment with compound 3g and light irradiation (FIG. 1).

[6] abbreviates: G-361, dark kept G361 cells, 4 h treatment, further 72 h, MTT, read-out: G361 - EC50, Dark.
[7] abbreviates: G-361, light or radiation study, light irradiated (414 nm, 10 J/cm^2) G361 cells, 4 h treatment, irradiation, further 72 h, MTT, read-out: G361 - EC50, 10 J/cm^2.

Where two headings read alike, the source gives them in different places. Some results are limits rather than exact numbers.

With `CC1(C)C(/C=C/c2ccc(C#N)c(F)c2)=Nc2ccc3ccccc3c21` [Compound 3g, 4-[(E)-2-(1,1-Dimethyl-1H-benzo[e]indol-2-yl)ethenyl]-2-fluorobenzonitrile], the “positive propidium iodide staining” value with G361 cells [1] is recorded as > 95 % of analyzed cells. Moreover, the EC50 came out at 7.6 ± 0.9 µM in data set [2] (G-361, G361 cells, light energy: Dark (Table 4), read-out: EC50 ± SD); 6.2 µM in data set [2] (setting [6]); 1.2 ± 0.3 µM in data set [2] (G-361, light or radiation study, G361 cells, light energy 2.5 J/cm^2 (Table 4), read-out: EC50 ± SD); 0.7 ± 0.1 µM in data set [2] (G-361, light or radiation study, G361 cells, light energy 10 J/cm^2 (Table 4), read-out: EC50 ± SD); 0.6 µM in data set [2] (setting [7]). The “number of cells in sub-G1 population” value in the data set on G361 cells [3] (0.3 μM, 1.1 J/cm^2, 24 h after irradiation) is reported as 0 (number of cells in sub-G1 population <10% (0)); in the data set on G361 cells [3] (0.3 μM, 3.3 J/cm^2, 24 h after irradiation), 0 (number of cells in sub-G1 population <10% (0)); in the data set with G361 cells [3] (0.3 μM, Dark, 24 h), 0 (number of cells in sub-G1 population <10% (0)); in the data set on G361 cells [3] (1.1 μM, 1.1 J/cm^2, 24 h after irradiation) it was 0 (number of cells in sub-G1 population <10% (0)); with G361 cells [3] (1.1 μM, 3.3 J/cm^2, 24 h after irradiation) it was “+ (10-50% (+))”; in the data set on G361 cells [3] (1.1 μM, Dark, 24 h), 0 (number of cells in sub-G1 population <10% (0)). Also, the “number of cells in sub-G1 population” value with G361 cells [3] (3.3 μM, 1.1 J/cm^2, 24 h after irradiation) is “+ (10-50% (+))”; in the data set on G361 cells [3] (3.3 μM, 3.3 J/cm^2, 24 h after irradiation), “++ (>50% (++))”; with G361 cells [3] (3.3 μM, Dark, 24 h) it was 0 (number of cells in sub-G1 population <10% (0)). For the same compound, the “sub-diploid (sub-G1) populations” value in the data set with G361 cells [3] (treated and irradiated G361 cells, concentration and light irradiation dependent) is “increase”. The Stokes shift in data set [4] came to 102 nm. The compound further came in with a λabs in data set [4] of 433 nm. Moreover, the λem in data set [4] amounted to 535 nm. In addition, the “H2A.X phosphorylation (Ser-139, γH2A.X)” value with G361 cells [5] (G361 cells kept in the dark, 0.1, 0.3 or 1.1 μM) is listed as “did not show any H2A.X phosphorylation”. Moreover, the “H2A.X phosphorylation (Ser-139, γH2A.X) level” value with G361 cells [5] (G361 cells, 1.1 μM+10 J/cm^2) is “massive increase”. The “cleavage of PARP-1” value with G361 cells [5] (G361 cells, 1.1 μM+10 J/cm^2) is “apparent”. Besides, the “caspase 7 cleavage” value in the data set on G361 cells [5] (G361 cells, treated and irradiated (10 J/cm^2)) is “cleavage activation of caspase 7”. In addition, the “capacity to induce apoptosis (caspase 3/7 activity)” value with caspases 3 and 7 is recorded as “clearly apparent”.

With `CC1(C)C(/C=C/c2cc([N+](=O)[O-])ccc2Cl)=Nc2ccc3ccccc3c21` [Compound 3c, 2-[(E)-2-(2-Chloro-5-nitrophenyl)ethenyl]-1,1-dimethyl-1H-benzo[e]indole], the EC50 in data set [2] (setting [6]) is 6.9 µM. Moreover, the EC50 in data set [2] (setting [7]) was 1.2 µM. In data set [4], the Stokes shift was determined as 98 nm, the λabs amounted to 443 nm and the λem was determined as 541 nm.

For `CC1(C)C(/C=C/c2ccc(F)c(C#N)c2)=Nc2ccc3ccccc3c21` [Compound 3j, 5-[(E)-2-(1,1-Dimethyl-1H-benzo[e]indol-2-yl)ethenyl]-2-fluorobenzonitrile], the EC50 in data set [2] (setting [6]) is 5.1 µM. The EC50 in data set [2] (setting [7]) turned out to be 1.3 µM. In data set [4], the Stokes shift is given as 154 nm, the λabs turned out to be 369 nm and the λem amounted to 523 nm.

Turning to `CC1(C)C(/C=C/c2cccc3ccccc23)=Nc2ccc3ccccc3c21` [Compound 3o, 1,1-Dimethyl-2-[(E)-2-(naphthalen-1-yl)ethenyl]-1H-benzo[e]indole], the EC50 in data set [2] (setting [6]) was > 10 µM. The EC50 in data set [2] (setting [7]) stood at 0.4 µM. In data set [4], the Stokes shift was 113 nm, the λabs was 445 nm and the λem amounted to 558 nm.

Regarding `CC1(C)C(/C=C/c2ccc(C(F)(F)F)cc2)=Nc2ccc3ccccc3c21` [Compound 3e, 1,1-Dimethyl-2-{(E)-2-[4-(trifluoromethyl)phenyl]ethenyl}-1H-benzo[e]indole], the EC50 in data set [2] (setting [6]) turned out to be 3.6 µM. The EC50 in data set [2] (setting [7]) came out at 0.5 µM. Moreover, in data set [4], the Stokes shift turned out to be 116 nm, the λabs stood at 415 nm and the λem was determined as 531 nm.

Take `CC1(C)C(/C=C/c2ccc(F)cc2)=Nc2ccc3ccccc3c21` [Compound 3d, 2-[(E)-2-(4-Fluorophenyl)ethenyl]-1,1-dimethyl-1H-benzo[e]indole]: the EC50 in data set [2] (setting [6]) is 7.3 µM. Moreover, in data set [2] (setting [7]), the EC50 is 4.1 µM. For the same compound, in data set [4], the Stokes shift is recorded as 102 nm, the λabs turned out to be 430 nm and the λem was 532 nm.

As for `CC1(C)C(/C=C/c2ccc3ccccc3c2)=Nc2ccc3ccccc3c21` [Compound 3l, 1,1-Dimethyl-2-[(E)-2-(naphthalen-2-yl)ethenyl]-1H-benzo[e]indole], the EC50 in data set [2] (setting [6]) is > 10 µM. In addition, the EC50 in data set [2] (setting [7]) is 1.3 µM. Moreover, in data set [4], the Stokes shift turned out to be 86 nm, the λabs worked out at 437 nm and the λem was 523 nm.
